Assay results reported in patent publication US20240383870A1, “HETEROCYCLIC ALDEHYDE TRAPPING COMPOUNDS AND USES THEREOF” (Aldeyra Therapeutics, Inc., priority 2021, published 2024).

How the values were obtained:
Assay type in all cases: in vivo
[1] = tested on: IL-7; assay: Acute LPS-induced sepsis in C57BL/6 mice: IL-7 cytokine detection assay; settings: 100 mpk IP; LPS-challenged mice, plasma at 6.5 h; unpaired t-test vs vehicle
[2] = tested on: IL-10; assay: Acute LPS-induced sepsis in C57BL/6 mice: IL-10 cytokine detection assay; settings: LPS-challenged mice, plasma at 6.5 h, unpaired t-test vs vehicle
[3] = tested on: IL-15; assay: Acute LPS-induced sepsis in C57BL/6 mice: IL-15 cytokine detection assay; settings: LPS-challenged mice, plasma at 6.5 h, unpaired t-test vs vehicle
[4] = tested on: MCP-1(CCL2); assay: Acute LPS-induced sepsis in C57BL/6 mice: MCP-1(CCL2) cytokine detection assay; settings: LPS-challenged mice, plasma at 6.5 h, unpaired t-test vs vehicle
[5] = tested on: MIP-1a(CCL3); assay: Acute LPS-induced sepsis in C57BL/6 mice: MIP-1a(CCL3) cytokine detection assay; settings: 100 mpk IP; LPS-challenged mice, plasma at 6.5 h; unpaired t-test vs vehicle
[6] = tested on: MIP2(CXCL2); assay: Acute LPS-induced sepsis in C57BL/6 mice: MIP2(CXCL2) cytokine detection assay; settings: 100 mpk IP; LPS-challenged mice, plasma at 6.5 h; unpaired t-test vs vehicle
Source text: FIG. 27 is a graph showing the results of a MIP2(CXCL2) cytokine detection assay in samples collected from mouse subjects after administration of compounds of the present disclosure.
(§1) The primary objective of this study was to collect plasma samples of lipopolysaccharide (LPS) challenged C57BL/6 mice after dose of test compounds to provide a cytokine profile as impacted by prophylactic treatments. This study models acute sepsis, which is a systemic inflammatory syndrome initiated by Gram-negative and Gram-positive bacteria and fungi which infect the lungs, abdomen, bloodstream, and renal or genitourinary tracts. Sepsis patients ultimately die of multiorgan failure which is caused by extensive tissue hypo-oxygenation due to ongoing microvascular leakage, disseminated intravascular coagulation, compromised energy production, and metabolic alterations. Sepsis is characterized by an early systemic inflammatory response phase featuring symptoms, such as tachycardia, fever, hyperventilation, and activation of the complement and coagulation cascades. However, it is now appreciated that a compensatory anti-inflammatory response phase follows, characterized by neuroendocrine-mediated immunosuppression. Since these processes are the result of interaction between cells of inflammation and organs, investigation of the treatment of this syndrome requires the use of intact animal models. The use of ten mice per group allows useful statistical modelling of the results.
(§2) For the data shown in Table 2A, 103 mice (female, 18-22 gram, C57BL/6) were purchased from ENVIGO. The mice were housed in 20 cages of 5 mice per cage with 1 cage of 3 mice as extra. The cages had filter tops and autoclaved bedding, and the animals were placed in quarantine with daily inspection. The treatment groups are detailed in Table 2A below. 10 mice were included in each group. […] MC=methyl cellulose.
(§3) For the data shown in Table 2B, 185 mice (female, 18-22 gram, C57BL/6) were purchased from ENVIGO. The mice were housed in 37 cages of 5 mice per cage. The cages had filter tops and autoclaved bedding, and the animals were placed in quarantine with daily inspection. The treatment groups are detailed in Table 2B below. 10 mice were included in each group. The mice were dosed by oral gavage (P0) at 10 ml/kg as per the table below. MC=methyl cellulose.
(§4) At T=0 h, the mice were dosed with one of the test compounds as described in the above table.
(§5) At T=0.5 h, the mice were injected IP with 1.5 mg/kg […] (Sigma).
(§6) At T=6.5 h, all mice were anesthetized and exsanguinated into pre-chilled EDTA-treated tubes. […]
(§7) A 32-plex cytokine panel was obtained from Eve Technologies. Each cytokine was assessed based against a 7 point curve range in duplicate. […]

[7] = tested on: eotaxin; assay: Acute LPS-induced sepsis in C57BL/6 mice: eotaxin cytokine detection assay; settings: 200 mpk PO; LPS-challenged mice, plasma at 6.5 h; unpaired t-test vs vehicle
[8] = tested on: IFNγ; assay: Acute LPS-induced sepsis in C57BL/6 mice: IFNγ cytokine detection assay; settings: 200 mpk PO; LPS-challenged mice, plasma at 6.5 h; unpaired t-test vs vehicle
[9] = tested on: IL-1α; assay: Acute LPS-induced sepsis in C57BL/6 mice: IL-1α cytokine detection assay; settings: 200 mpk PO; LPS-challenged mice, plasma at 6.5 h; unpaired t-test vs vehicle
Source text: FIG. 5 is a graph showing the results of an IL-1α cytokine detection assay in samples collected from mouse subjects after administration of compounds of the present disclosure.
as §1, with “Since these processes are the result of interaction between cells of inflammation and organs, investigation of the treatment of this syndrome requires the use of intact animal models. The use of ten mice per group allows useful statistical modelling of the results.” left out
as §7

[10] = tested on: IL-3; assay: Acute LPS-induced sepsis in C57BL/6 mice: IL-3 cytokine detection assay; settings: 200 mpk PO; LPS-challenged mice, plasma at 6.5 h; unpaired t-test vs vehicle
[11] = tested on: IL-6; assay: Acute LPS-induced sepsis in C57BL/6 mice: IL-6 cytokine detection assay; settings: 200 mpk PO; LPS-challenged mice, plasma at 6.5 h; unpaired t-test vs vehicle
Source text: FIG. 11 is a graph showing the results of an IL-6 cytokine detection assay in samples collected from mouse subjects after administration of compounds of the present disclosure.
as §1
(§8) For the data shown in Table 2A, 103 mice (female, 18-22 gram, C57BL/6) were purchased from ENVIGO. The mice were housed in 20 cages of 5 mice per cage with 1 cage of 3 mice as extra. The cages had filter tops and autoclaved bedding, and the animals were placed in quarantine with daily inspection. The treatment groups are detailed in Table 2A below. 10 mice were included in each group. The mice were dosed by oral gavage (PO) at 10 ml/kg as per the table below. MC=methyl cellulose.
as §3, §4, §5, §6, §7

[12] = tested on: IL-9; assay: Acute LPS-induced sepsis in C57BL/6 mice: IL-9 cytokine detection assay; settings: 200 mpk PO; LPS-challenged mice, plasma at 6.5 h; unpaired t-test vs vehicle
Source text: FIG. 13 is a graph showing the results of an IL-9 cytokine detection assay in samples collected from mouse subjects after administration of compounds of the present disclosure.
as §1
as §8, with “cellulose. […]” for “cellulose.”
as §7

[13] = tested on: IL-13; assay: Acute LPS-induced sepsis in C57BL/6 mice: IL-13 cytokine detection assay; settings: 200 mpk PO; LPS-challenged mice, plasma at 6.5 h; unpaired t-test vs vehicle
Source text: FIG. 17 is a graph showing the results of an IL-13 cytokine detection assay in samples collected from mouse subjects after administration of compounds of the present disclosure.
as §1, §8, §3, §4, §5
(§9) At T=6.5 h, all mice were anesthetized and exsanguinated into pre-chilled EDTA-treated tubes. The blood was processed to plasma which was stored in labeled 0.5 polypropylene snap-cap tubes (0.5 mL Eppendorf Safe-Lock Tubes (Fisher Scientific) at −80° C.
(§10) Preparation of vehicle: 1.0 gram of methyl cellulose (Sigma) was dissolved in 200 mL of water (USP purified) to make a solution of 0.5% methyl cellulose in water. Preparation of LPS solution: 6 mg of LPS (from Escherichia Coli 055:B5, Cat #L2880, Sigma Lot #057m4013) was dissolved in 20 ml of saline to give a LPS solution of 0.3 mg/ml. All mice were injected with 5 ml/kg (1.5 mg/kg) at the scheduled time by intraperitoneal injection.
A 32-plex cytokine panel was obtained from Eve Technologies. Each cytokine was assessed based against a 7 point curve range in duplicate. The average of the two replicate analyses was used for statistics. […]

[14] = tested on: IL-17; assay: Acute LPS-induced sepsis in C57BL/6 mice: IL-17 cytokine detection assay; settings: 200 mpk PO; LPS-challenged mice, plasma at 6.5 h; unpaired t-test vs vehicle
Source text: FIG. 19 is a graph showing the results of an IL-17 cytokine detection assay in samples collected from mouse subjects after administration of compounds of the present disclosure.
as §1, §2, §3, §4, §5, §6, §7

[15] = tested on: KC; assay: Acute LPS-induced sepsis in C57BL/6 mice: KC cytokine detection assay; settings: 200 mpk PO; LPS-challenged mice, plasma at 6.5 h; unpaired t-test vs vehicle
Source text: FIG. 20 is a graph showing the results of a KC cytokine detection assay in samples collected from mouse subjects after administration of compounds of the present disclosure.
as §1, §8, §3, §4, §5, §9, §10
(§11) A 32-plex cytokine panel was obtained from Eve Technologies. Each cytokine was assessed based against a 7 point curve range in duplicate. The average of the two replicate analyses was used for statistics. Unpaired t-tests were performed using Excel™ contrasting vehicle against each treatment group. One star indicates P<0.05. Two stars indicates P<0.01. Three stars indicates P<0.001. Four stars indicates P<0.0001. Most, but not all, statistically significant results are indicated with star(s).

[16] = tested on: leukemia inhibitory factor (LIF); assay: Acute LPS-induced sepsis in C57BL/6 mice: leukemia inhibitory factor (LIF) cytokine detection assay; settings: 200 mpk PO; LPS-challenged mice, plasma at 6.5 h; unpaired t-test vs vehicle
Source text: FIG. 21 is a graph showing the results of a leukemia inhibitory factor (LIF) cytokine detection assay in samples collected from mouse subjects after administration of compounds of the present disclosure. LIF is an interleukin 6 class cytokine that affects cell growth by inhibiting differentiation.
as §1, §8, §3, §4, §5, §9, §10, §7

[17] = tested on: LIX (CXCL5); assay: Acute LPS-induced sepsis in C57BL/6 mice: LIX (CXCL5) cytokine detection assay; settings: 200 mpk PO; LPS-challenged mice, plasma at 6.5 h; unpaired t-test vs vehicle
Source text: FIG. 22 is a graph showing the results of a LIX (CXCL5) cytokine detection assay in samples collected from mouse subjects after administration of compounds of the present disclosure.
as §1, with “Since these processes are the result of interaction between cells of inflammation and organs, investigation of the treatment of this syndrome requires the use of intact animal models. The use of ten mice per group allows useful statistical modelling of the results.” left out
as §7

[18] = tested on: M-CSF (CSF1); assay: Acute LPS-induced sepsis in C57BL/6 mice: M-CSF (CSF1) cytokine detection assay; settings: 200 mpk PO; LPS-challenged mice, plasma at 6.5 h; unpaired t-test vs vehicle
Source text: FIG. 24 is a graph showing the results of an M-CSF (CSF1) cytokine detection assay in samples collected from mouse subjects after administration of compounds of the present disclosure. M-CSF causes hematopoietic stem cells to differentiate into macrophages.
as §1, §8, §3, §4, §5, §9, §10, §11

[19] = tested on: TNFα; assay: Acute LPS-induced sepsis in C57BL/6 mice: TNFα cytokine detection assay; settings: 200 mpk PO; LPS-challenged mice, plasma at 6.5 h; unpaired t-test vs vehicle
Source text: FIG. 29 is a graph showing the results of a TNFα cytokine detection assay in samples collected from mouse subjects after administration of compounds of the present disclosure.
as §1
as §8, with “cellulose. […]” for “cellulose.”
as §7

[20] = tested on: VEGF; assay: Acute LPS-induced sepsis in C57BL/6 mice: VEGF cytokine detection assay; settings: 200 mpk PO; LPS-challenged mice, plasma at 6.5 h; unpaired t-test vs vehicle
Source text: FIG. 30 is a graph showing the results of a VEGF cytokine detection assay in samples collected from mouse subjects after administration of compounds of the present disclosure.
as §1, with “Since these processes are the result of interaction between cells of inflammation and organs, investigation of the treatment of this syndrome requires the use of intact animal models. The use of ten mice per group allows useful statistical modelling of the results.” left out
as §7

Structure (SMILES): CC(O)(c1cccc2[nH]nc(N)c12)C(F)(F)F (centres unmarked) [Compound I-9, 2-(3-amino-1H-indazol-4-yl)-1,1,1-trifluoropropan-2-ol]
- IL-7: significant cytokine change vs. vehicle [1]: *** (Three stars indicates P<0.001)
- IL-10: significant cytokine change vs. vehicle ([2]; 100 mpk IP): **** (Four stars indicates P<0.0001)
- IL-15: significant cytokine change vs. vehicle ([3]; 100 mpk IP): ** (Two stars indicates P<0.01)
- MCP-1: significant cytokine change vs. vehicle ([4]; 100 mpk IP): * (One star indicates P<0.05)
- MIP-1a: significant cytokine change vs. vehicle [5]: ** (Two stars indicates P<0.01)
- MIP-2: significant cytokine change vs. vehicle [6]: * (One star indicates P<0.05)

Structure (SMILES): CC(O)(c1sc2cc(C(F)(F)F)ccc2c1N)C(F)(F)F (centres unmarked) [Compound I-3, 2-(3-amino-6-(trifluoromethyl)benzo[b]thiophen-2-yl)-1,1,1-trifluoropropan-2-ol]
- Eotaxin: significant cytokine change vs. vehicle [7]: ** (Two stars indicates P<0.01)
- IFNy: significant cytokine change vs. vehicle [8]: **** (Four stars indicates P<0.0001)
- IL-1a: significant cytokine change vs. vehicle [9]: *** (Three stars indicates P<0.001)
- IL-3: significant cytokine change vs. vehicle [10]: **** (Four stars indicates P<0.0001)
- IL-6: significant cytokine change vs. vehicle [11]: ** (Two stars indicates P<0.01)
- IL-9: significant cytokine change vs. vehicle [12]: *** (Three stars indicates P<0.001)
- IL-10: significant cytokine change vs. vehicle ([2]; 200 mpk PO): * (One star indicates P<0.05)
- IL-13: significant cytokine change vs. vehicle [13]: *** (Three stars indicates P<0.001)
- IL-15: significant cytokine change vs. vehicle ([3]; 200 mpk PO): ** (Two stars indicates P<0.01)
- IL-17: significant cytokine change vs. vehicle [14]: *** (Three stars indicates P<0.001)
- KC: significant cytokine change vs. vehicle [15]: ** (Two stars indicates P<0.01)
- LIF: significant cytokine change vs. vehicle [16]: * (One star indicates P<0.05)
- LIX: significant cytokine change vs. vehicle [17]: * (One star indicates P<0.05)
- MCP-1: significant cytokine change vs. vehicle ([4]; 200 mpk PO): **** (Four stars indicates P<0.0001)
- M-CSF: significant cytokine change vs. vehicle [18]: ** (Two stars indicates P<0.01)
- TNFa: significant cytokine change vs. vehicle [19]: ** (Two stars indicates P<0.01)
- VEGF: significant cytokine change vs. vehicle [20]: * (One star indicates P<0.05)
